Tested on: hydrozoas
Experiment: Experimental Example 1: effect of antifouling agent for a fishnet, nets immersed in the sea off Konbumori in Hokkaido
Type: in vivo
Conditions: conclusion from Table 3
From the text: The antifouling agents for […] shown in Examples 3-10 and Comparative Examples 1 and 2 were respectively applied to Tetoron unknotted nets (1000/26, 3 sun mesh) by immersion and air-dried. The nets were retained at about 15 meters underwater in the sea off Konbumori in Hokkaido for 4 months from August 1995. The adhesion organisms were mostly hydrozoas. As Comparative Example 3, the evaluation results without a treatment with an antifouling agent for a […] shown. • Evaluation A: Area of fouling of […], 0%, no adhesion organisms. • Evaluation B: Area of fouling of […], 0-10%, small amount of adhesion organisms to the extent practically acceptable. • Evaluation C: Area of fouling of […], 10-50%, great amount of adhesion organisms, unpractical as a […]. • Evaluation D: Area of fouling of […], 50% or more, markedly greater amount of adhesion organisms.

triphenylborane-dehydroabiethylamine adduct [Example 1]
antifouling effect against coelenterates such as hydrozoas and obelia (in words): extremely strong, long-lasting and practical antifouling effect
